{"source": "the supplement of paper PMC10307832", "assay_in_all_cases": "relative viability (nuclei count vs DMSO), 5 days (fraction); higher = more cells survive", "key": {"NCI-H1915": {"system": "NCI-H1915", "how_it_was_run": "(§1)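 Dosing by pin tool came one day after lung cancer cell lines were seeded in 1536-well plates, using either one drug or a fixed anchor-drug dose plus five library-drug doses (not always all listed) in √10 steps. After 5 days, nuclei were counted on 4× images. Relative viability is treated-well nuclei count divided by vehicle-well nuclei count, and values are medians of duplicate plates.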"}, "EPLC-272H": {"system": "EPLC-272H", "how_it_was_run": "as §1"}, "EMC-BAC-2": {"system": "EMC-BAC-2", "how_it_was_run": "as §1"}, "NCI-H322M": {"system": "NCI-H322M", "how_it_was_run": "as §1"}, "PC-14": {"system": "PC-14", "how_it_was_run": "as §1"}, "LCLC-97TM1": {"system": "LCLC-97TM1", "how_it_was_run": "as §1"}, "LXF-289": {"system": "LXF-289", "how_it_was_run": "as §1"}, "NCI-H2085": {"system": "NCI-H2085", "how_it_was_run": "as §1"}, "NCI-H1993": {"system": "NCI-H1993", "how_it_was_run": "as §1"}, "NCI-H2347": {"system": "NCI-H2347", "how_it_was_run": "as §1"}, "HOP-62": {"system": "HOP-62", "how_it_was_run": "as §1"}, "NCI-H1734": {"system": "NCI-H1734", "how_it_was_run": "as §1"}, "NCI-H2126": {"system": "NCI-H2126", "how_it_was_run": "as §1"}, "NCI-H647": {"system": "NCI-H647", "how_it_was_run": "as §1"}, "H3255": {"system": "H3255", "how_it_was_run": "as §1"}, "NCI-H727": {"system": "NCI-H727", "how_it_was_run": "as §1"}}, "data": [{"smiles": "Nc1ccn([C@@H]2O[C@H](CO)[C@@H](O)[C@@H]2O)c(=O)n1", "note": "[Cytarabine] + NC(=O)Nc1cc(-c2cccc(F)c2)sc1C(=O)N[C@H]1CCCNC1 [AZD7762] (partner 0.2 µM)", "values": [{"measurement": "relative viability", "setting": "NCI-H1915; first compound 0.005 µM", "result": 0.579}, {"measurement": "relative viability", "setting": "NCI-H1915; first compound 0.01581 µM", "result": 0.386}, {"measurement": "relative viability", "setting": "NCI-H1915; first compound 0.05 µM", "result": 0.241}, {"measurement": "relative viability", "setting": "NCI-H1915; first compound 0.1581 µM", "result": 0.155}, {"measurement": "relative viability", "setting": "NCI-H1915; first compound 0.5 µM", "result": 0.131}, {"measurement": "relative viability", "setting": "EPLC-272H; first compound 0.005 µM", "result": 0.335}, {"measurement": "relative viability", "setting": "EPLC-272H; first compound 0.01581 µM", "result": 0.273}, {"measurement": "relative viability", "setting": "EPLC-272H; first compound 0.05 µM", "result": 0.117}, {"measurement": "relative viability", "setting": "EPLC-272H; first compound 0.1581 µM", "result": 0.0659}, {"measurement": "relative viability", "setting": "EPLC-272H; first compound 0.5 µM", "result": 0.0636}, {"measurement": "relative viability", "setting": "EMC-BAC-2; first compound 0.005 µM", "result": 1.09}, {"measurement": "relative viability", "setting": "EMC-BAC-2; first compound 0.01581 µM", "result": 0.97}, {"measurement": "relative viability", "setting": "EMC-BAC-2; first compound 0.05 µM", "result": 0.674}, {"measurement": "relative viability", "setting": "EMC-BAC-2; first compound 0.1581 µM", "result": 0.344}, {"measurement": "relative viability", "setting": "EMC-BAC-2; first compound 0.5 µM", "result": 0.308}, {"measurement": "relative viability", "setting": "NCI-H322M; first compound 0.005 µM", "result": 0.405}, {"measurement": "relative viability", "setting": "NCI-H322M; first compound 0.01581 µM", "result": 0.494}, {"measurement": "relative viability", "setting": "NCI-H322M; first compound 0.05 µM", "result": 0.405}, {"measurement": "relative viability", "setting": "NCI-H322M; first compound 0.1581 µM", "result": 0.371}, {"measurement": "relative viability", "setting": "NCI-H322M; first compound 0.5 µM", "result": 0.385}, {"measurement": "relative viability", "setting": "PC-14; first compound 0.005 µM", "result": 0.346}, {"measurement": "relative viability", "setting": "PC-14; first compound 0.01581 µM", "result": 0.234}, {"measurement": "relative viability", "setting": "PC-14; first compound 0.05 µM", "result": 0.136}, {"measurement": "relative viability", "setting": "PC-14; first compound 0.1581 µM", "result": 0.0783}, {"measurement": "relative viability", "setting": "PC-14; first compound 0.5 µM", "result": 0.0484}, {"measurement": "relative viability", "setting": "LCLC-97TM1; first compound 0.005 µM", "result": 0.14}, {"measurement": "relative viability", "setting": "LCLC-97TM1; first compound 0.01581 µM", "result": 0.0846}, {"measurement": "relative viability", "setting": "LCLC-97TM1; first compound 0.05 µM", "result": 0.0944}, {"measurement": "relative viability", "setting": "LCLC-97TM1; first compound 0.1581 µM", "result": 0.0643}, {"measurement": "relative viability", "setting": "LCLC-97TM1; first compound 0.5 µM", "result": 0.0575}, {"measurement": "relative viability", "setting": "LXF-289; first compound 0.005 µM", "result": 0.927}, {"measurement": "relative viability", "setting": "LXF-289; first compound 0.01581 µM", "result": 0.85}, {"measurement": "relative viability", "setting": "LXF-289; first compound 0.05 µM", "result": 0.442}, {"measurement": "relative viability", "setting": "LXF-289; first compound 0.1581 µM", "result": 0.123}, {"measurement": "relative viability", "setting": "LXF-289; first compound 0.5 µM", "result": 0.0877}, {"measurement": "relative viability", "setting": "NCI-H2085; first compound 0.005 µM", "result": 0.997}, {"measurement": "relative viability", "setting": "NCI-H2085; first compound 0.01581 µM", "result": 0.997}, {"measurement": "relative viability", "setting": "NCI-H2085; first compound 0.05 µM", "result": 0.956}, {"measurement": "relative viability", "setting": "NCI-H2085; first compound 0.1581 µM", "result": 0.694}, {"measurement": "relative viability", "setting": "NCI-H2085; first compound 0.5 µM", "result": 0.516}, {"measurement": "relative viability", "setting": "NCI-H1993; first compound 0.005 µM", "result": 0.766}, {"measurement": "relative viability", "setting": "NCI-H1993; first compound 0.01581 µM", "result": 0.562}, {"measurement": "relative viability", "setting": "NCI-H1993; first compound 0.05 µM", "result": 0.654}, {"measurement": "relative viability", "setting": "NCI-H1993; first compound 0.1581 µM", "result": 0.523}, {"measurement": "relative viability", "setting": "NCI-H1993; first compound 0.5 µM", "result": 0.523}, {"measurement": "relative viability", "setting": "NCI-H2347; first compound 0.005 µM", "result": 0.721}, {"measurement": "relative viability", "setting": "NCI-H2347; first compound 0.01581 µM", "result": 0.525}, {"measurement": "relative viability", "setting": "NCI-H2347; first compound 0.05 µM", "result": 0.47}, {"measurement": "relative viability", "setting": "NCI-H2347; first compound 0.1581 µM", "result": 0.369}, {"measurement": "relative viability", "setting": "NCI-H2347; first compound 0.5 µM", "result": 0.286}, {"measurement": "relative viability", "setting": "HOP-62; first compound 0.005 µM", "result": 0.391}, {"measurement": "relative viability", "setting": "HOP-62; first compound 0.01581 µM", "result": 0.157}, {"measurement": "relative viability", "setting": "HOP-62; first compound 0.05 µM", "result": 0.203}, {"measurement": "relative viability", "setting": "HOP-62; first compound 0.1581 µM", "result": 0.107}, {"measurement": "relative viability", "setting": "HOP-62; first compound 0.5 µM", "result": 0.0888}, {"measurement": "relative viability", "setting": "NCI-H1734; first compound 0.005 µM", "result": 0.258}, {"measurement": "relative viability", "setting": "NCI-H1734; first compound 0.01581 µM", "result": 0.172}, {"measurement": "relative viability", "setting": "NCI-H1734; first compound 0.05 µM", "result": 0.159}, {"measurement": "relative viability", "setting": "NCI-H1734; first compound 0.1581 µM", "result": 0.0997}, {"measurement": "relative viability", "setting": "NCI-H1734; first compound 0.5 µM", "result": 0.102}, {"measurement": "relative viability", "setting": "NCI-H2126; first compound 0.005 µM", "result": 0.965}, {"measurement": "relative viability", "setting": "NCI-H2126; first compound 0.01581 µM", "result": 0.936}, {"measurement": "relative viability", "setting": "NCI-H2126; first compound 0.05 µM", "result": 0.808}, {"measurement": "relative viability", "setting": "NCI-H2126; first compound 0.1581 µM", "result": 0.361}, {"measurement": "relative viability", "setting": "NCI-H2126; first compound 0.5 µM", "result": 0.267}, {"measurement": "relative viability", "setting": "NCI-H647; first compound 0.005 µM", "result": 0.188}, {"measurement": "relative viability", "setting": "NCI-H647; first compound 0.01581 µM", "result": 0.0767}, {"measurement": "relative viability", "setting": "NCI-H647; first compound 0.05 µM", "result": 0.0765}, {"measurement": "relative viability", "setting": "NCI-H647; first compound 0.1581 µM", "result": 0.0321}, {"measurement": "relative viability", "setting": "NCI-H647; first compound 0.5 µM", "result": 0.0304}, {"measurement": "relative viability", "setting": "H3255; first compound 0.005 µM", "result": 0.945}, {"measurement": "relative viability", "setting": "H3255; first compound 0.01581 µM", "result": 0.812}, {"measurement": "relative viability", "setting": "H3255; first compound 0.05 µM", "result": 0.764}, {"measurement": "relative viability", "setting": "H3255; first compound 0.1581 µM", "result": 0.583}, {"measurement": "relative viability", "setting": "H3255; first compound 0.5 µM", "result": 0.551}, {"measurement": "relative viability", "setting": "NCI-H727; first compound 0.005 µM", "result": 0.518}, {"measurement": "relative viability", "setting": "NCI-H727; first compound 0.01581 µM", "result": 0.565}, {"measurement": "relative viability", "setting": "NCI-H727; first compound 0.05 µM", "result": 0.377}, {"measurement": "relative viability", "setting": "NCI-H727; first compound 0.1581 µM", "result": 0.361}, {"measurement": "relative viability", "setting": "NCI-H727; first compound 0.5 µM", "result": 0.418}]}]}
